{"source": "patent US10933045B2", "about": "“Intranasal compositions for treatment of neurological and neurodegenerative diseases and disorders” (priority 2014, dated 2021)", "key": {"acetylcholinesterase": {"target": "acetylcholinesterase (Homo sapiens, UniProt P22303)", "sequence (P22303 32-614)": "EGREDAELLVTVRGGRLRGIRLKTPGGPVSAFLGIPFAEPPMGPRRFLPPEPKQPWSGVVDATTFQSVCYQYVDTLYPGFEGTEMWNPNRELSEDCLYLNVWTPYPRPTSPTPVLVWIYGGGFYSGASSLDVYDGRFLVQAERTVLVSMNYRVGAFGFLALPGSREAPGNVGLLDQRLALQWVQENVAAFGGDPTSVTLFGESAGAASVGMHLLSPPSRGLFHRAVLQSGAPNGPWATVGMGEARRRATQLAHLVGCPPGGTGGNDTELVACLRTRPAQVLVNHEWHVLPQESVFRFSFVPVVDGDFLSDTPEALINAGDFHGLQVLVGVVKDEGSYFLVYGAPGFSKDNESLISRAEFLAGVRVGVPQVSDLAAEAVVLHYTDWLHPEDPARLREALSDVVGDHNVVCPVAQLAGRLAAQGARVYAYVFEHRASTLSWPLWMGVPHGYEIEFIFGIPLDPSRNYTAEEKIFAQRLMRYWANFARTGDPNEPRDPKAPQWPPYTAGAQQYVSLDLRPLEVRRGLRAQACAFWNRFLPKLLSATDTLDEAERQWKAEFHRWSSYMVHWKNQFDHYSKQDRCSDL", "conditions": "estimated (Gobburu et al. 2001); cited from earlier work"}, "[1]": {"conditions": "assumed value from literature; cited from earlier work"}, "sigma one receptor [2]": {"target": "T1, sigma one receptor (Rattus norvegicus, UniProt Q9R0C9)", "T1 construct": "host or cells: rat brain", "T1 sequence (Q9R0C9 whole entry)": "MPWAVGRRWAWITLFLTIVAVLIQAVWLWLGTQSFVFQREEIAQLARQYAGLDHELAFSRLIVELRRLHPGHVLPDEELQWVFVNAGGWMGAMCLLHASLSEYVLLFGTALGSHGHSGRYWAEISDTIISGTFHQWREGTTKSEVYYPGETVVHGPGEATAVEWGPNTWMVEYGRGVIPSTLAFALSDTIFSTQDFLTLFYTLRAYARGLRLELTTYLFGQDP", "experiment": "Dextromethorphan binding studies with rat brain (Klein and Musacchio 1992)"}, "sigma one receptor [3]": {"target": "T1, sigma one receptor", "conditions": "read-out: dissociation constant (Kd); binding studies with rat brain; cited from earlier work"}, "[4]": {"conditions": "cited from earlier work"}, "[5]": {"conditions": "Alzheimer's disease patients, 2 mg i.v. dose (Hossain et al. 2002)"}}, "note": "Where two headings read alike, the source gives them in different places.", "data": [{"smiles": "C[C@@H](c1cccc(O)c1)N(C)C", "note": "[NAP 226-90, 3-[(1S)-1-(dimethylamino)ethyl]phenol]", "values": [{"measurement": "potency, times less than rivastigmine", "setting": "acetylcholinesterase", "result": 10, "unit": "times"}]}, {"smiles": "COc1ccc2c(c1)[C@]13CCCC[C@@H]1[C@H](C2)N(C)CC3", "note": "[dextromethorphan]", "values": [{"measurement": "systemic clearance", "setting": "[1]", "result": "about 23 mL/min/kg"}, {"measurement": "Kd", "setting": "sigma one receptor [2]", "result": "~19.9", "unit": "nM"}, {"measurement": "Kd", "setting": "sigma one receptor [3]", "result": 20, "unit": "nM"}]}, {"smiles": "CCN(C)C(=O)Oc1cccc([C@H](C)N(C)C)c1", "note": "[rivastigmine, Rivastigmine]", "values": [{"measurement": "variation of intrinsic clearance (CL)", "setting": "[4]; Alzheimer's disease patients (Hossain et al. 2002)", "result": "up to 4 fold"}, {"measurement": "CL", "setting": "[4]; [5]", "result": "21.6 to 82.8", "unit": "L/h"}, {"measurement": "Vz", "setting": "[4]; [5]", "result": "53.2 to 227", "unit": "L"}]}]}
